Experiments:
[1] = molecular target: HCV NS3 protease genotype 3a (3A-1) (Hepatitis C virus genotype 3a, UniProt Q81258); test: HCV NS3 protease time-resolved fluorescence (TRF) assay, genotype 3a; type: biochemical; conditions: Ki 3a
Method in brief: (§1)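 Pre-incubation of NS3/NS4A protease with inhibitor for 10 min in pH 7.5 HEPES buffer with 10 mM DTT; 25 nM TRF peptide substrate, hydrolysis 6 h at room temperature. Fluorescence read at ex 340/em 615 nm with 400 μs delay, enzyme level set for S/B 5-20; IC50 by four-parameter fit.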

[2] = molecular target: T1, HCV genotype 1b (BK) NS3 modified enzyme with a R155K mutation (Hepatitis C virus genotype 1b, UniProt P26663, R1181K); test: HCV NS3 protease time-resolved fluorescence (TRF) assay, genotype 1b R155K; type: biochemical; conditions: Ki 1b R155K, genotype 1b (BK) NS3 R155K; single value
T1 construct: HCV genotype 1b (BK) NS3 modified enzyme
Method in brief: as §1

SMILES | Ki [1] | Ki [2]
C=C[C@@H]1C[C@]1(NC(=O)[C@@H]1C[C@@H]2CN1C(=O)[C@H](C1CCCCC1)NC(=O)O[C@@H]1C[C@H]1CCCCCc1c(nc3c(OC)cccc3c1OCCN1CCCCC1)O2)C(=O)NS(=O)(=O)C1(C)CC1 [Example 216, (1aR,5S,8S,10R,22aR)-5-cyclohexyl-N-[(1R,2S)-2-ethenyl-1-{[(1-methylcyclopropyl)sulfonyl]carbamoyl}cyclopropyl]-13-methoxy-3,6-dioxo-17-[2-(piperidin-1-yl)ethoxy]-1,1a,3,4,5,6,9,10,18,19,20,21,22,22a-tetradecahydro-8H-7,10-methanocyclopropa[18,19][1,10,3,6] dioxadiazacyclononadecino[11,12-b]quinoline-8-carboxamide] | 6.4 nM | 0.24 nM
C=C[C@@H]1C[C@]1(NC(=O)[C@@H]1C[C@@H]2CN1C(=O)[C@H](C(C)(C)C)NC(=O)O[C@@H]1C[C@H]1CCCCCc1c(nc3ccccc3c1OCCc1ccccn1)O2)C(=O)NS(=O)(=O)C1(C)CC1 [Example 217, (1aR,5S,8S,10R,22aR)-5-tert-butyl-N-[(1R,2S)-2-ethenyl-1-{[(1-methylcyclopropyl)sulfonyl]carbamoyl}cyclopropyl]-3,6-dioxo-17-[2-(pyridin-2-yl)ethoxy]-1,1a,3,4,5,6,9,10,18,19,20,21,22,22a-tetradecahydro-8H-7,10-methanocyclopropa[18,19][1,10,3,6] dioxadiazacyclononadecino[11,12-b]quinoline-8-carboxamide] | 7.1 nM | 0.27 nM
C=C[C@@H]1C[C@]1(NC(=O)[C@@H]1C[C@@H]2CN1C(=O)[C@H](C(C)(C)C)NC(=O)O[C@@H]1C[C@H]1CCCCCc1c(nc3ccccc3c1OCCc1cccnc1)O2)C(=O)NS(=O)(=O)C1(C)CC1 [Example 218, (1aR,5S,8S,10R,22aR)-5-tert-butyl-N-[(1R,2S)-2-ethenyl-1-{[(1-methylcyclopropyl)sulfonyl]carbamoyl}cyclopropyl]-3,6-dioxo-17-[2-(pyridin-3-yl)ethoxy]-1,1a,3,4,5,6,9,10,18,19,20,21,22,22a-tetradecahydro-8H-7,10-methanocyclopropa[18,19][1,10,3,6] dioxadiazacyclononadecino[11,12-b]quinoline-8-carboxamide] | 2.6 nM | 0.035 nM
C=C[C@@H]1C[C@]1(NC(=O)[C@@H]1C[C@@H]2CN1C(=O)[C@H](C(C)(C)C)NC(=O)O[C@@H]1C[C@H]1CCCCCc1c(nc3ccccc3c1OCCc1ccncc1)O2)C(=O)NS(=O)(=O)C1(C)CC1 [Example 219, (1aR,5S,8S,10R,22aR)-5-tert-butyl-N-[(1R,2S)-2-ethenyl-1-{[(1-methylcyclopropyl)sulfonyl]carbamoyl}cyclopropyl]-3,6-dioxo-17-[2-(pyridine-4-yl)ethoxy]-1,1a,3,4,5,6,9,10,18,19,20,21,22,22a-tetradecahydro-8H-7,10-methanocyclopropa[18,19][1,10,3,6] dioxadiazacyclononadecino[11,12-b]quinoline-8-carboxamide] | 1.9 nM | 0.12 nM
C=C[C@@H]1C[C@]1(NC(=O)[C@@H]1C[C@@H]2CN1C(=O)[C@H](C(C)(C)C)NC(=O)O[C@@H]1C[C@H]1CCCCCc1c(nc3ccccc3c1OC1CCN(C3CC3)CC1)O2)C(=O)NS(=O)(=O)C1(C)CC1 [Example 220, (1aR,5S,8S,10R,22aR)-5-tert-butyl-17-[(1-cyclopropylpiperidin-4-yl)oxy]-N-[(1R,2S)-2-ethenyl-1-{[(1-methylcyclopropyl)sulfonyl]carbamoyl}cyclopropyl]-3,6-dioxo-1,1a,3,4,5,6,9,10,18,19,20,21,22,22a-tetradecahydro-8H-7,10-methanocyclopropa[18,19][1,10,3,6] dioxadiazacyclononadecino[11,12-b]quinoline-8-carboxamide] | 3.9 nM | 0.29 nM
C=C[C@@H]1C[C@]1(NC(=O)[C@@H]1C[C@@H]2CN1C(=O)[C@H](C(C)(C)C)NC(=O)O[C@@H]1C[C@H]1CCCCCc1c(nc3ccccc3c1OC[C@H]1CNCCO1)O2)C(=O)NS(=O)(=O)C1(C)CC1 [Example 221, (1aR,5S,8S,10R,22aR)-5-tert-butyl-N-[(1R,2S)-2-ethenyl-1-{[(1-methylcyclopropyl)sulfonyl]carbamoyl}cyclopropyl]-17-[(2R)-morpholin-2-ylmethoxy]-3,6-dioxo-1,1a,3,4,5,6,9,10,18,19,20,21,22,22a-tetradecahydro-8H-7,10-methanocyclopropa[18,19][1,10,3,6]dioxadiazacyclononadecino[11,12-b]quinoline-8-carboxamide] | 1.4 nM | 0.05 nM
C=C[C@@H]1C[C@]1(NC(=O)[C@@H]1C[C@@H]2CN1C(=O)[C@H](C(C)(C)C)NC(=O)O[C@@H]1C[C@H]1CCCCCc1c(nc3ccccc3c1OC1CNC1)O2)C(=O)NS(=O)(=O)C1(C)CC1 [Example 222, (1aR,5S,8S,10R,22aR)-17-(azetidin-3-yloxy)-5-tert-butyl-N-[(1R,2S)-2-ethenyl-1-{[(1-methylcyclopropyl)sulfonyl]carbamoyl}cyclopropyl]-3,6-dioxo-1,1a,3,4,5,6,9,10,18,19,20,21,22,22a-tetradecahydro-8H-7,10-methanocyclopropa[18,19][1,10,3,6]dioxadiazacyclononadecino[11,12-b]quinoline-8-carboxamide] | 0.44 nM | 0.045 nM
C=C[C@@H]1C[C@]1(NC(=O)[C@@H]1C[C@@H]2CN1C(=O)[C@H](C(C)(C)C)NC(=O)O[C@@H]1C[C@H]1CCCCCc1c(nc3ccccc3c1OC1CN(CC3CC3)C1)O2)C(=O)NS(=O)(=O)C1(C)CC1 [Example 223, (1aR,5S,8S,10R,22aR)-5-tert-butyl-17-{[1-(cyclopropylmethyl)azetidin-3-yl]oxy}-N-[(1R,2S)-2-ethenyl-1-{[(1-methylcyclopropyl)sulfonyl]carbamoyl}cyclopropyl]-3,6-dioxo-1,1a,3,4,5,6,9,10,18,19,20,21,22,22a-tetradecahydro-8H-7,10-methanocyclopropa[18,19][1,10,3,6]dioxadiazacyclononadecino[11,12-b]quinoline-8-carboxamide] | 1.2 nM | 0.055 nM
C=C[C@@H]1C[C@]1(NC(=O)[C@@H]1C[C@@H]2CN1C(=O)[C@H](C(C)(C)C)NC(=O)O[C@@H]1C[C@H]1CCCCCc1c(nc3ccccc3c1OCC1CN(C)C1)O2)C(=O)NS(=O)(=O)C1(C)CC1 [Example 224, (1aR,5S,8S,10R,22aR)-5-tert-butyl-N-[(1R,2S)-2-ethenyl-1-{[(1-methylcyclopropyl)sulfonyl]carbamoyl}cyclopropyl]-17-[(1-methylazetidin-3-yl)methoxy]-3,6-dioxo-1,1a,3,4,5,6,9,10,18,19,20,21,22,22a-tetradecahydro-8H-7,10-methanocyclopropa[18,19][1,10,3,6]dioxadiazacyclononadecino[11,12-b]quinoline-8-carboxamide] | 0.67 nM | 0.061 nM
C=C[C@@H]1C[C@]1(NC(=O)[C@@H]1C[C@@H]2CN1C(=O)[C@H](C(C)(C)C)NC(=O)O[C@@H]1C[C@H]1CCCCCc1c(nc3ccccc3c1OC1CCN(CCOC)CC1)O2)C(=O)NS(=O)(=O)C1(C)CC1 [Example 225, (1aR,5S,8S,10R,22aR)-5-tert-butyl-N-[(1R,2S)-2-ethenyl-1-{[(1-methylcyclopropyl)sulfonyl]carbamoyl}cyclopropyl]-17-{[1-(2-methoxyethyl)piperidin-4-yl]oxy}-3,6-dioxo-1,1a,3,4,5,6,9,10,18,19,20,21,22,22a-tetradecahydro-8H-7,10-methanocyclopropa[18,19][1,10,3,6]dioxadiazacyclononadecino[11,12-b]quinoline-8-carboxamide] | 0.6 nM | 0.079 nM
C=C[C@@H]1C[C@]1(NC(=O)[C@@H]1C[C@@H]2CN1C(=O)[C@H](C(C)(C)C)NC(=O)O[C@@H]1C[C@H]1CCCCCc1c(nc3ccccc3c1OCC1CN(CC)CCO1)O2)C(=O)NS(=O)(=O)C1(C)CC1 (stereo partly drawn) [Example 226, (1aR,5S,8S,10R,22aR)-5-tert-butyl-N-[(1R,2S)-2-ethenyl-1-{[(1-methylcyclopropyl)sulfonyl]carbamoyl}cyclopropyl]-17-[(4-ethylmorpholin-2-yl)methoxy]-3,6-dioxo-1,1a,3,4,5,6,9,10,18,19,20,21,22,22a-tetradecahydro-8H-7,10-methanocyclopropa[18,19][1,10,3,6] dioxadiazacyclononadecino[11,12-b]quinoline-8-carboxamide] | 1.6 nM | 0.11 nM
C=C[C@@H]1C[C@]1(NC(=O)[C@@H]1C[C@@H]2CN1C(=O)[C@H](C(C)(C)C)NC(=O)O[C@@H]1C[C@H]1CCCCCc1c(nc3ccccc3c1OCC1CCN(CC)CC1)O2)C(=O)NS(=O)(=O)C1(C)CC1 [Example 227, (1aR,5S,8S,10R,22aR)-5-tert-butyl-N-[(1R,2S)-2-ethenyl-1-{[(1-methylcyclopropyl)sulfonyl]carbamoyl}cyclopropyl]-17-[(1-ethylpiperidin-4-yl)methoxy]-3,6-dioxo-1,1a,3,4,5,6,9,10,18,19,20,21,22,22a-tetradecahydro-8H-7,10-methanocyclopropa[18,19][1,10,3,6] dioxadiazacyclononadecino[11,12-b]quinoline-8-carboxamide] | 0.36 nM | 0.095 nM
C=C[C@@H]1C[C@]1(NC(=O)[C@@H]1C[C@@H]2CN1C(=O)[C@H](C(C)(C)C)NC(=O)O[C@@H]1C[C@H]1CCCCCc1c(nc3ccccc3c1OCC1CCN(CCOC)CC1)O2)C(=O)NS(=O)(=O)C1(C)CC1 [Example 228, (1aR,5S,8S,10R,22aR)-5-tert-butyl-N-[(1R,2S)-2-ethenyl-1-{[(1-methylcyclopropyl)sulfonyl]carbamoyl}cyclopropyl]-17-{[1-(2-methoxyethyl)piperidin-4-yl]methoxy}-3,6-dioxo-1,1a,3,4,5,6,9,10,18,19,20,21,22,22a-tetradecahydro-8H-7,10-methanocyclopropa[18,19][1,10,3,6] dioxadiazacyclononadecino[11,12-b]quinoline-8-carboxamide] | 0.47 nM | 0.11 nM

Reference: US9328138B2 (priority 2011, dated 2016)
